Measured values from ChEMBL document CHEMBL1157980, “Guaianolides as immunomodulators. Synthesis and biological activities of dehydrocostus lactone, mokko lactone, eremanthin, and their derivatives” (J Nat Prod, 1999).

Experiments:
[1] = Inhibition of killing activity of CD8+ specific mouse CTL-OE4 cells; format: functional, cell-based
[2] = tested on: A549; assay: Inhibition of IL-1-beta-induced ICAM1 expression in human A549 cells; format: functional, cell-based

Row | SMILES | IC50 [1] [µM] | IC50 [2] [µM]
1 | C=C1CC[C@H]2C(=C)CC[C@H]3C(=C)C(=O)O[C@@H]3[C@@H]12 [DEHYDROCOSTUSLACTONE] | 14 | 10
2 | C=C1CC[C@]23O[C@@]2(C)CC[C@@H]2[C@H](OC(=O)[C@H]2C)[C@@H]13 | 597 | 504
3 | C=C1CC[C@@]23O[C@]2(C)CC[C@@H]2[C@H](OC(=O)[C@H]2C)[C@@H]13 | > 1000 | 253
4 | C=C1CC[C@]23O[C@@]2(C)CCC2=C(C)C(=O)O[C@@H]2[C@@H]13 | > 1000 | 136
5 | C=C1CC[C@@H]2[C@H](OC(=O)[C@H]2C)[C@H]2C(C)=CC[C@@H]12 | > 100 | 
6 | C=C1CC[C@H]2C(C)=CC[C@H]3C(=C)C(=O)O[C@@H]3[C@@H]12 [EREMANTHIN] | 11 | 46
7 | C=C1CC[C@H]2C(C)=CCC3=C(C)C(=O)O[C@@H]3[C@@H]12 | > 100 | 142
8 | C=C1CC[C@H]2C(=C)CC[C@@H]3[C@H](OC(=O)[C@H]3C)[C@@H]12 [MOKKO LACTONE] | > 1000 | 251
9 | C=C1CC[C@]23O[C@@]2(C)CC[C@H]2C(=C)C(=O)O[C@@H]2[C@@H]13 | 7 | 10
10 | C=C1CC[C@@]23O[C@]2(C)CC[C@H]2C(=C)C(=O)O[C@@H]2[C@@H]13 | 7 | 7
11 | C=C1CC[C@@H]2[C@H]1[C@H]1OC(=O)C(=C)[C@@H]1C[C@H]1O[C@@]21C | 8 | 6
12 | C=C1CC[C@H]2C(=C)CCC3=C(C)C(=O)O[C@@H]3[C@@H]12 | 50 | 442
13 | C=C1CCC2=C(C)CC[C@H]3C(=C)C(=O)O[C@@H]3[C@@H]12 | 15 | 8
14 | C=C1C(=O)O[C@@H]2[C@H]3C(C)=CC[C@H]3C(=C)CC[C@@H]12 [ISODEHYDROCOSTUS LACTONE] | 16 | 
15 | C=C1CC[C@@H]2[C@H]1[C@H]1OC(=O)[C@@H](C)[C@@H]1C[C@H]1O[C@@]21C | 422 | 117
